According to US9145399B2, “Substituted bicyclic triazole derivatives as gamma secretase modulators” (Janssen Pharmaceuticals, Inc., priority 2010, dated 2015):
Where a name gives a salt, the structure may show the parent alone.

Columns and labels:
[1] = system: Aβ42; test: Screening for γ-secretase-modulating activity in SKNBE2 cells carrying APP 695 wild type: Aβ42 in cell supernatant (Alphalisa); format: cell-based; details: overnight incubation
Experimental: (§1) Pharmacology A) Screening of the Compounds of the Invention for γ-Secretase-Modulating Activity
(§2) Screening was carried out using SKNBE2 cells carrying the APP 695—wild type, grown in Dulbecco's Modified Eagle's Medium/Nutrient mixture F-12 (DMEM/NUT-mix F-12) (HAM) provided by Invitrogen (cat no. 10371-029) containing 5% Serum/Fe supplemented with 1% non-essential amino acids, 1-glutamine 2 mM, Hepes 15 mM, penicillin 50 U/ml (units/ml) en streptomycin 50 μg/ml. Cells were grown to near confluency.
(§3) The screening was performed using a modification of the assay as described in Citron et al (1997) Nature Medicine 3: 67. Briefly, cells were plated in a 384-well plate at 10^4 cells/well in Ultraculture (Lonza, BE12-725F) supplemented with 1% glutamine (Invitrogen, 25030-024), 1% non-essential amino acid (NEAA), penicillin 50 U/ml en streptomycin 50 μg/ml in the presence of test compound at different test concentrations. The cell/compound mixture was incubated overnight at 37° C., 5% CO2. The next day the media were assayed by two sandwich immuno-assays, for Aβ42 and Aβtotal.
(§4) Aβtotal and Aβ42 concentrations were quantified in the cell supernatant using the Aphalisa technology (Perkin Elmer). Alphalisa is a sandwich assay using biotinylated antibody attached to streptavidin coated donorbeads and antibody conjugated to acceptor beads. In the presence of antigen, the beads come into close proximity. The excitation of the donor beads provokes the release of singlet oxygen molecules that trigger a cascade of energy transfer in the acceptor beads, resulting in light emission. To quantify the amount of Aβ42 in the cell supernatant, monoclonal antibody specific to the C-terminus of Aβ42 (JRF/cAβ42/26) was coupled to the receptor beads and biotinylated antibody specific to the N-terminus of Aβ (JRF/AβN/25) was used to react with the donor beads. T quantify the amount of Aβtotal in the cell supernatant, monoclonal antibody specific to the N-terminus of Aβ (JRF/AβN/25) was coupled to the receptor beads and biotinylated antibody specific to the mid region of Aβ (biotinylated 4G8) was used to react with the donor beads.
(§5) To obtain the values reported in Table 3, the data are calculated as percentage of the maximum amount of amyloid Beta 42 measured in the absence of the test compound. The sigmoidal dose response curves were analyzed using non-linear regression analysis with percentage of the control plotted against the log concentration of the compound. A 4-parameter equation was used to determine the IC50.

[2] = system: Aβtotal; test: Screening for γ-secretase-modulating activity in SKNBE2 cells carrying APP 695 wild type: Aβtotal in cell supernatant (Alphalisa); format: cell-based; details: overnight incubation
Experimental: as §1, §2, §3, §4, §5

[3] = Homo sapiens, SKNBE2, SKNBE2 cells carrying APP 695 wild type
[4] = SKNBE2 cells carrying APP 695 wild type

SMILES | melting point | IC50 [1, 3] | IC50 ([2]; Homo sapiens) | IC50 [1, 4] | IC50 [2]
COc1cc(Nc2nc3n(n2)CCC(C)C3c2ccc(F)cc2)ccc1-c1ccnc(C)c1 (racemic) [Compound 101, 8-(4-fluorophenyl)-5,6,7,8-tetrahydro-N-[3-methoxy-4-(2-methyl-4-pyridinyl)phenyl]-7-methyl-[1,2,4]triazolo[1,5-a]pyridin-2-amine] | 122.1 °C | 44 nM | > 10000 nM | – | –
COc1cc(Nc2nc3n(n2)CCCC3c2ccc(F)cc2)ccc1-c1ccnc(C)c1 (stereo not shown) [Compound 1, 8-(4-fluorophenyl)-5,6,7,8-tetrahydro-N-[3-methoxy-4-(2-methyl-4-pyridinyl)phenyl]-[1,2,4]triazolo[1,5-a]pyridin-2-amine] | 207.1 °C | 16 nM | 7760 nM | – | –
COc1cc(Nc2nc3c(-c4ccccc4Cl)cccn3n2)ccc1-c1ccnc(C)c1 [Compound 2, 8-(2-chlorophenyl)-N-[3-methoxy-4-(2-methyl-4-pyridinyl)phenyl]-[1,2,4]triazolo[1,5-a]pyridin-2-amine] | 186.7 °C | 7 nM | > 10000 nM | – | –
COc1cc(Nc2nc3c(-c4ccc(F)cc4C(F)(F)F)cccn3n2)ccc1-n1cnc(C)c1 [Compound 6, 8-[4-fluoro-2-(trifluoromethyl)phenyl]-N-[3-methoxy-4-(4-methyl-1H-imidazol-1-yl)phenyl]-[1,2,4]triazolo[1,5-a]pyridin-2-amine] | 238.4 °C | 7 nM | 7410 nM | – | –
COc1cc(Nc2nc3c(-c4ccccc4Cl)cccn3n2)ccc1-n1cnc(C)c1 [Compound 7, 8-(2-chlorophenyl)-N-[3-methoxy-4-(4-methyl-1H-imidazol-1-yl)phenyl]-[1,2,4]triazolo[1,5-a]pyridin-2-amine] | 235 °C | 7 nM | > 10000 nM | – | –
COc1cc(Nc2nc3c(-c4ccccc4C(F)(F)F)nccn3n2)ccc1-n1cnc(C)c1 [Compound 8, N-[3-methoxy-4-(4-methyl-1H-imidazol-1-yl)phenyl]-8-[2-(trifluoromethyl)phenyl]-[1,2,4]triazolo[1,5-a]pyrazin-2-amine] | 206.9 °C | 32 nM | 7590 nM | – | –
COc1cc(Nc2nc3n(n2)CCNC3c2ccccc2C(F)(F)F)ccc1-n1cnc(C)c1 (stereo not shown) [Compound 9, 5,6,7,8-tetrahydro-N-[3-methoxy-4-(4-methyl-1H-imidazol-1-yl)phenyl]-8-[2-(trifluoromethyl)phenyl]-[1,2,4]triazolo[1,5-a]pyrazin-2-amine] | 248 °C | 65 nM | > 10000 nM | – | –
COc1nc(Nc2nc3c(-c4ccc(F)cc4C)nccn3n2)ccc1-n1cnc(C)c1 [Compound 11, 8-(4-fluoro-2-methylphenyl)-N-[6-methoxy-5-(4-methyl-1H-imidazol-1-yl)-2-pyridinyl]-[1,2,4]triazolo[1,5-a]pyrazin-2-amine] | 278.9 °C | – | – | – | –
COc1nc(Nc2nc3c(-c4ccc(F)cc4C)nccn3n2)ccc1-c1ccnc(C)c1 [Compound 12, 8-(4-fluoro-2-methylphenyl)-N-(2-methoxy-2′-methyl[3,4′-bipyridin]-6-yl)-[1,2,4]triazolo[1,5-a]pyrazin-2-amine] | 268.2 °C | – | – | – | –
COc1cc(Nc2nc3n(n2)CCCC3c2ccccc2C(F)(F)F)ccc1-n1cnc(C)n1 (stereo not shown) [Compound 15, 5,6,7,8-tetrahydro-N-[3-methoxy-4-(3-methyl-1H-1,2,4-triazol-1-yl)phenyl]-8-[2-(trifluoromethyl)phenyl]-[1,2,4]triazolo[1,5-a]pyridin-2-amine] | 233.2 °C | 79 nM | > 10000 nM | – | –
Cc1cc(-c2ccc(Nc3nc4n(n3)CCC[C@@H]4c3ccc(F)cc3C)cc2)ccn1 [Compound 93, (8R)-8-(4-fluoro-2-methylphenyl)-5,6,7,8-tetrahydro-N-[4-(2-methyl-4-pyridinyl)phenyl]-[1,2,4]triazolo[1,5-a]pyridin-2-amine] | – | 43 nM | > 10000 nM | – | –
Cc1cc(-c2ccc(Nc3nc4n(n3)CCC[C@H]4c3ccc(F)cc3C)cc2)ccn1 [Compound 94, (8S)-8-(4-fluoro-2-methylphenyl)-5,6,7,8-tetrahydro-N-[4-(2-methyl-4-pyridinyl)phenyl]-[1,2,4]triazolo[1,5-a]pyridin-2-amine] | – | 56 nM | > 10000 nM | – | –
COc1ccc(C2CCCn3nc(Nc4ccc(-c5ccnc(C)c5)c(OC)c4)nc32)cc1F (stereo not shown) [Compound 104, 8-(3-fluoro-4-methoxyphenyl)-5,6,7,8-tetrahydro-N-[3-methoxy-4-(2-methyl-4-pyridinyl)phenyl]-[1,2,4]triazolo[1,5-a]pyridin-2-amine.1.3HCl.2.3H2O] | – | – | – | 56 nM | > 10000 nM
COc1cc(Nc2nc3n(n2)CCCC3c2cccc(N(C)C)c2)ccc1-c1ccnc(C)c1 (stereo not shown) [Compound 111, 8-[3-(dimethylamino)phenyl]-5,6,7,8-tetrahydro-N-[3-methoxy-4-(2-methyl-4-pyridinyl)phenyl]-[1,2,4]triazolo[1,5-a]pyridin-2-amine] | – | 56 nM | > 10000 nM | – | –
COc1cc(F)cc(C2CCCn3nc(Nc4ccc(-c5ccnc(C)c5)c(OC)c4)nc32)c1 (stereo not shown) [Compound 115, 8-(3-fluoro-5-methoxyphenyl)-5,6,7,8-tetrahydro-N-[3-methoxy-4-(2-methyl-4-pyridinyl)phenyl]-[1,2,4]triazolo[1,5-a]pyridin-2-amine] | – | 41 nM | > 10000 nM | – | –
Cc1cc(-c2ccc(Nc3nc4n(n3)CCCC4c3cc(C(F)(F)F)ccc3C)cc2)ccn1 (stereo not shown) [Compound 144, 5,6,7,8-tetrahydro-N-[4-(2-methyl-4-pyridinyl)phenyl]-8-[2-methyl-5-(trifluoromethyl)phenyl]-[1,2,4]triazolo[1,5-a]pyridin-2-amine] | – | 28 nM | > 10000 nM | – | –
COc1ccc(F)c(C2CCCn3nc(Nc4ccc(-c5ccnc(C)c5)c(OC)c4)nc32)c1 (stereo not shown) [Compound 172, 8-(2-fluoro-5-methoxyphenyl)-5,6,7,8-tetrahydro-N-[3-methoxy-4-(2-methyl-4-pyridinyl)phenyl]-[1,2,4]triazolo[1,5-a]pyridin-2-amine.1.7HCl] | – | – | – | 38 nM | > 10000 nM
COc1cc(Nc2nc3c(N4CCCC(C(F)(F)F)C4)cccn3n2)ccc1-c1ccnc(C)c1 (stereo not shown) [Compound 181, N-[3-methoxy-4-(2-methyl-4-pyridinyl)phenyl]-8-[3-(trifluoromethyl)-1-piperidinyl]-[1,2,4]triazolo[1,5-a]pyridin-2-amine.1.5HCl.1.7H2O] | – | 16 nM | 3980 nM | – | –
COc1nc(Nc2nc3c(-c4ccc(F)cc4C)nccn3n2)ccc1-n1cnc(C)c1 [Compound 186, 8-(4-fluoro-2-methylphenyl)-N-[6-methoxy-5-(4-methyl-1H-imidazol-1-yl)-2-pyridinyl]-[1,2,4]triazolo[1,5-a]pyrazin-2-amine.HCl] | – | – | – | 1100 nM | > 10000 nM
COc1nc(Nc2nc3c(-c4ccc(F)cc4C)nccn3n2)ccc1-c1ccnc(C)c1 [Compound 187, 8-(4-fluoro-2-methylphenyl)-N-(2-methoxy-2′-methyl[3,4′-bipyridin]-6-yl)-[1,2,4]triazolo[1,5-a]pyrazin-2-amine.HCl] | – | – | – | 1620 nM | > 10000 nM
